From paper PMC6014687 (Journal of Medicinal Chemistry, 2016)
Where “and” joins values, the source holds several entries; their conditions need not be identical. Equal entries are not always repeated. Where two headings read alike, the source gives them in different places.

Tests used:
SK-OV-3 cells [1] = assay: cells; settings: Homo sapiens, SK-OV-3, 96 h
in vivo [2] = settings: female, BALB/c, mouse, 5 mg/kg; for AUC(0-inf): AUCinf; for AUC(0-t): AUClast
Protocol: Experimental work was done in accordance with Home Office regulations under the
UK National Cancer Research CR I Guidelines with local Ethical Committee approval.9
Female BALB/c and Ncr-Foxn1nu mice were obtained from Charles River (Margate, UK).
Animals were adapted to laborator y conditions for at least 1 week prior to dosing and were
allowed food and water ad libitum. Compounds were administered iv or po (0.1 m L/10 g) in
hydrox yprop yl beta c ycl odextrin in 50 mM sodium citrate buff er (Ncr-Foxn1nu PK). Blood
spotted onto Whatman FTA-DMPK B cards (VWR) together with a calibration curve and
qualit y controls spiked in control blood. Cards were allowed to dr y at room temperature for at
least 2 h. 6 mm discs were punched from the cards and extracted with 200 µ L methanol
containing 500 nM olo moucine as an internal standard. Following centrifugation, extracts
were anal yzed b y multiple reaction monitoring of precursor and product ions by LC-ES I-
% formic acid and methanol on a Phenomenex (Macclesfi eld, UK) Kinet exTM C18, 5 cm x
2.6 µ m, 2.1 mm i.d UHP LC column. Pharmac okinetic parameters were derived from non -

in vivo [3] = settings: female, mouse, po, 20 mg/kg
[4] = test system: SK-OV-3 human ovarian carcinoma xenograft; settings: female, NCr athymic, mouse, in vivo
physchem = settings: pH 7.4
SK-OV-3 cells [5] = test system: SK-OV-3 cells
WM266.4 cells = settings: WM266.4, 30 h
recombinant human pirin = recombinant human pirin (Homo sapiens, UniProt O00625)
recombinant human pirin, sequence (O00625 whole entry): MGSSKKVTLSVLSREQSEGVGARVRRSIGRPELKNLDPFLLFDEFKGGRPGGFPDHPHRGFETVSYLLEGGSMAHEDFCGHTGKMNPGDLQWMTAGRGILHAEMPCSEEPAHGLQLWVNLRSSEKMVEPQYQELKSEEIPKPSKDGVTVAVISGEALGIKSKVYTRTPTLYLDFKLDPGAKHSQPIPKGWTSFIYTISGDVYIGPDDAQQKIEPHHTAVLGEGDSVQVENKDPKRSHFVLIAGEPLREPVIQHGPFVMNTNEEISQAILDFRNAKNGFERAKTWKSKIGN

[6] = read-out: SK-OV-3 pGI50±SEM (converted)

Compound | GI50 (SK-OV-3 cells [1]; read-out: SK-OV-3 GI50) [nM] | GI50 (SK-OV-3 cells [1]; [6]) [nM] | other results
Cc1ccc2cc(C(=O)Nc3cc(NC(=O)c4ccc5c(c4)OCCO5)c(C)cc3C)ccc2n1 [Compound 12, N-(5-(2,3-Dihydrobenzo[b][1,4]dioxine-6-carboxamido)-2,4-dimethylphenyl)-2-methylquinoline-6-carboxamide] | > 1000 | > 1000 | –
Cc1ccc(NC(=O)c2ccc3c(c2)OCCO3)cc1NC(=O)c1ccc2nc(OCCCN3CCOCC3)ccc2c1 [Compound 23, N-(5-(2,3-Dihydrobenzo[b][1,4]dioxine-6-carboxamido)-2-methylphenyl)-2-(3-morpholinopropoxy)quinoline-6-carboxamide] | 7.4 | 7.41 | –
Cc1ccc(NC(=O)c2ccc3c(c2)OCCO3)cc1NC(=O)c1ccc2nc(OCCN3CCCCC3)ccc2c1 [Compound 25, N-(5-(2,3-Dihydrobenzo[b][1,4]dioxine-6-carboxamido)-2-methylphenyl)-2-(2-(piperidin-1-yl)ethoxy)quinoline-6-carboxamide] | 1.1 | – | –
Cc1ccc(NC(=O)c2ccc3c(c2)OCCO3)cc1NC(=O)c1ccc2nc(OCCN3CCCC3)ccc2c1 [Compound 26, N-(5-(2,3-Dihydrobenzo[b][1,4]dioxine-6-carboxamido)-2-methylphenyl)-2-(2-(pyrrolidin-1-yl)ethoxy)quinoline-6-carboxamide] | – | – | half-life at 24 h (in vivo [2]): 318 min; AUC(0-inf) (in vivo [2]; iv): 14.8 µM·h; AUC(0-t) (in vivo [2]; iv): 14.1 µM·h; clearance (in vivo [2]; iv, Cl): 9.8 mL/min/kg; Cmax (in vivo [2]; iv): 3830 nM; Vd (in vivo [2]; iv, Vss): 3.26 L/kg; Vd at 24 h (in vivo [2]; iv, Vss): 4.2 L/kg; Vd (in vivo [2]; iv, Vz): 5.78 L/kg; clearance at 24 h (in vivo [2]; iv, blood Cl): 9.2 mL/min/kg; AUC(0-t) at 24 h (in vivo [2]; po, AUC0–24h PO): 5.8 µM·h; AUC(0-inf) (in vivo [2]; po): 6.09 µM·h; AUC(0-t) (in vivo [2]; po): 5.02 µM·h; Cmax (in vivo [2]; po): 828 nM; AUC(0-inf) (in vivo [3]; Ncr-Foxn1nu (athymic), AUCinf): 1.58 µM·h; AUC(0-t) (in vivo [3]; Ncr-Foxn1nu (athymic), AUClast): 1.53 µM·h; Cmax (in vivo [3]; Ncr-Foxn1nu (athymic), Cmax): 439 nM; AUC(0-t) at 24 h (in vivo [3]; athymic (Ncr-Foxn1nu), AUC0–24h PO): 1.9 µM·h; total tumor concentrations [4]: ≤ 940 nM; chromatographic logD (physchem): 2.1
Cc1ccc(NC(=O)c2ccc3c(c2)OCCO3)cc1NC(=O)c1ccc2nc(OCCCN(C)C)ccc2c1 [Compound 22, N-(5-(2,3-Dihydrobenzo[b][1,4]dioxine-6-carboxamido)-2-methylphenyl)-2-(3-(dimethylamino)propoxy)quinoline-6-carboxamide] | 1.1 | 1.15 | –
Cc1ccc2cc(C(=O)Nc3cc(NC(=O)c4cccc5c4OCCO5)ccc3C)ccc2n1 [Compound 6, N-(5-(2,3-Dihydrobenzo[b][1,4]dioxine-5-carboxamido)-2-methylphenyl)-2-methylquinoline-6-carboxamide] | > 1000 | > 1000 | –
Cc1ccc2cc(C(=O)Nc3cc(NS(=O)(=O)c4ccc5c(c4)OCCO5)ccc3C)ccc2n1 [Compound 14, N-(5-(2,3-Dihydrobenzo[b][1,4]dioxine-6-sulfonamido)-2-methylphenyl)-2-methylquinoline-6-carboxamide] | > 1000 | > 1000 | –
Cc1ccc(NC(=O)c2cccc3c2OCCO3)cc1NC(=O)c1ccc2nc(OCCN3CCCC3)ccc2c1 [Compound 28, N-(5-(2,3-Dihydrobenzo[b][1,4]dioxine-5-carboxamido)-2-methylphenyl)-2-(2-(pyrrolidin-1-yl)ethoxy)quinoline-6-carboxamide] | > 1000 | > 1000 | SK-OV-3 pGI50±SEM (SK-OV-3 cells [5]): <6; antimigratory activity (WM266.4 cells): no measurable antimigratory activity; AS (apparent stoichiometry) (recombinant human pirin): 1.18 and 1.11 and 1.80
Cc1ccc(NC(=O)c2ccc3c(c2)OCCO3)cc1NC(=O)c1ccc2nc(OCCN)ccc2c1 [Compound 29, 2-(2-Aminoethoxy)-N-(5-(2,3-dihydrobenzo[b][1,4]dioxine-6-carboxamido)-2-methylphenyl)quinoline-6-carboxamide] | 3.1 | 3.09 | –
Cc1ccc2cc(C(=O)Nc3c(C)ccc(NC(=O)c4ccc5c(c4)OCCO5)c3C)ccc2n1 [Compound 11, N-(3-(2,3-Dihydrobenzo[b][1,4]dioxine-6-carboxamido)-2,6-dimethylphenyl)-2-methylquinoline-6-carboxamide] | > 1000 | > 1000 | –
CCC(=O)NCCOc1ccc2cc(C(=O)Nc3cc(NC(=O)c4ccc5c(c4)OCCO5)ccc3C)ccc2n1 [Compound 27] | 9.1 | 9.12 | –
COCCOc1ccc2cc(C(=O)Nc3cc(NC(=O)c4ccc5c(c4)OCCO5)ccc3C)ccc2n1 [Compound 21, N-(5-(2,3-Dihydrobenzo[b][1,4]dioxine-6-carboxamido)-2-methylphenyl)-2-(2-methoxyethoxy)quinoline-6-carboxamide] | 4.3 | 4.27 | –
Cc1ccc(NC(=O)c2ccc3c(c2)OCCO3)cc1NC(=O)c1ccc2ncccc2c1 [Compound 15, N-(5-(2,3-Dihydrobenzo[b][1,4]dioxine-6-carboxamido)-2-methylphenyl)quinoline-6-carboxamide] | 8.6 | 2.51 | –
